Experimental data reported in patent US20230312550A1, “N-(2-(4-CYANOTHIAZOLIDIN-3-YL)-2-OXOETHYL)-QUINOLINE-4-CARBOXAMIDES” (AstraZeneca AB, priority 2020, published 2023).
Values after ≈ are worked out from the molar mass of the structure shown.

Experiments:
[1] = molecular target: human Fibroblast activation protein alpha (hFAP) (Homo sapiens (Human), UniProt Q12884); assay: hFAP inhibition assay (tight binders); type: biochemical; settings: Ala-Pro-AMC 20 μM, n = 1 or geometric mean n = 2-6; also: hFAP 2.4 pM
Method: The plates were read on a PHERAstar® reader with excitation 340 nm and emission 460 nm. Data were analyzed in Genedata Screener®. IC50 values were determined by plotting % inhibition versus log compound concentration and using a one site dose response model.

[2] = Metabolic stability in human liver microsomes (HLM); settings: human, HLM CLint, n = 1 or average of n = 2-3
Method: Metabolic stability in HLM was measured as described in J Comput Aided Mol Des 2015, 29, 795.

[3] = molecular target: hFAP (M39-A757) (Homo sapiens (Human), UniProt Q12884); assay: hFAP binding assay (surface plasmon resonance); settings: SPR, 20° C.; for hFAP Binding assay k(off) / hFAP Binding assay k(on): single cycle kinetics; for Kd: n = 1 or geometric mean n = 2-4
[4] = Metabolic stability in rat hepatocytes (rHep); settings: n = 1 or geometric mean of n = 2-3
[5] = Kinetic solubility; settings: kinetic from dmso stock, Solubility, kinetic solubility; n = 1 or average of n = 2-3
Method: Kinetic solubility was measured as described in Comput Aided Mol Des 2015, 29, 795.

[6] = Caco-2 cell permeability; settings: human
Method: Caco-2 cell permeability was measured as described in Mol Pharm 2017, 14, 1601.

[7] = molecular target: Prolyl endopeptidase, Prolyl Oligopeptidase (hPREP) (Homo sapiens (Human), UniProt P48147); assay: hPrep inhibition assay; type: biochemical; settings: hPREP 0.6 nM, Z-Gly-Pro-amino-methylcoumarin 50 μM; read-out: PREP IC50
Summary of the method: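 Fluorogenic read-out (340 nm excitation, 460 nm emission) after 20 min at rt, using 50 μM final Z-Gly-Pro-aminomethylcoumarin and 0.6 nM final enzyme, following 15 min compound preincubation. Buffer pH 7.5 with glutathione and Triton X-100. IC50 via one-site model on % inhibition vs log concentration.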

Chain of hFAP (M39-A757) (Q12884 39-757): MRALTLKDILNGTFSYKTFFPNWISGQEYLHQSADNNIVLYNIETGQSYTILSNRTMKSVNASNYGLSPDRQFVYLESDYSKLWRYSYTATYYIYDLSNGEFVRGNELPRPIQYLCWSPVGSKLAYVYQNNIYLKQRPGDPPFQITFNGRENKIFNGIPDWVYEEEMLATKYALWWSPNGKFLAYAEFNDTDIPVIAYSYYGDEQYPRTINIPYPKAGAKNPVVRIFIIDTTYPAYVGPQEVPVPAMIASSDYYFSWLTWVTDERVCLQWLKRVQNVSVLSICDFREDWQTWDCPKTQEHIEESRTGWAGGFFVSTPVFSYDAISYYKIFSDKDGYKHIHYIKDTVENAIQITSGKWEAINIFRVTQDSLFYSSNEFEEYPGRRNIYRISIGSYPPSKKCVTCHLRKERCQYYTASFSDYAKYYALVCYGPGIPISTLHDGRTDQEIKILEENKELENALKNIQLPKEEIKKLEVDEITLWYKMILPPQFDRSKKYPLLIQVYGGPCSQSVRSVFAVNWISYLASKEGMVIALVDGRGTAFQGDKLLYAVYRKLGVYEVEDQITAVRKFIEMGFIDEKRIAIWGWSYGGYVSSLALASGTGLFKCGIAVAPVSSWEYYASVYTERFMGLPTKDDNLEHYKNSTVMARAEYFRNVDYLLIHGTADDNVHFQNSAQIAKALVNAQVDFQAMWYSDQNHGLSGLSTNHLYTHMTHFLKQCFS
Chain of human Fibroblast activation protein alpha (hFAP) (Q12884 38-760): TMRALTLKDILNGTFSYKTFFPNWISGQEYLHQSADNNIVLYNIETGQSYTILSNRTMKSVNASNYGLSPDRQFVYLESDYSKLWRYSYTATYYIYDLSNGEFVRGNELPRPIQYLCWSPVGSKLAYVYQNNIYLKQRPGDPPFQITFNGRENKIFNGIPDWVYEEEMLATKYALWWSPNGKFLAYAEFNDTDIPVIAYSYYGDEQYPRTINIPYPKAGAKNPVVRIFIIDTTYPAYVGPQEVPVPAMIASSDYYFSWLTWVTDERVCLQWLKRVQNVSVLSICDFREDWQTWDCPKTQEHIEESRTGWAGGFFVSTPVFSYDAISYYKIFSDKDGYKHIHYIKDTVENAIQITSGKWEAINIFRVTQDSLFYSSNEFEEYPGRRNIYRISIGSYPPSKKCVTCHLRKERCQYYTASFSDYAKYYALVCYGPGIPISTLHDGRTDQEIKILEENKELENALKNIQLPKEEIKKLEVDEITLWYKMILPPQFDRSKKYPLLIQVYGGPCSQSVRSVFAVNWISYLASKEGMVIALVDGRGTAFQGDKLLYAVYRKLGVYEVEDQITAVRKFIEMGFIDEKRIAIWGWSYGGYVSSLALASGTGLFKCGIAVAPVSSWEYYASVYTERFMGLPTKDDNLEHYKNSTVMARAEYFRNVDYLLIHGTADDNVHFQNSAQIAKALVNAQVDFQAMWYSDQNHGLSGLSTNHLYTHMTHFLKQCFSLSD
Chain of Prolyl endopeptidase, Prolyl Oligopeptidase (hPREP) (P48147 whole entry): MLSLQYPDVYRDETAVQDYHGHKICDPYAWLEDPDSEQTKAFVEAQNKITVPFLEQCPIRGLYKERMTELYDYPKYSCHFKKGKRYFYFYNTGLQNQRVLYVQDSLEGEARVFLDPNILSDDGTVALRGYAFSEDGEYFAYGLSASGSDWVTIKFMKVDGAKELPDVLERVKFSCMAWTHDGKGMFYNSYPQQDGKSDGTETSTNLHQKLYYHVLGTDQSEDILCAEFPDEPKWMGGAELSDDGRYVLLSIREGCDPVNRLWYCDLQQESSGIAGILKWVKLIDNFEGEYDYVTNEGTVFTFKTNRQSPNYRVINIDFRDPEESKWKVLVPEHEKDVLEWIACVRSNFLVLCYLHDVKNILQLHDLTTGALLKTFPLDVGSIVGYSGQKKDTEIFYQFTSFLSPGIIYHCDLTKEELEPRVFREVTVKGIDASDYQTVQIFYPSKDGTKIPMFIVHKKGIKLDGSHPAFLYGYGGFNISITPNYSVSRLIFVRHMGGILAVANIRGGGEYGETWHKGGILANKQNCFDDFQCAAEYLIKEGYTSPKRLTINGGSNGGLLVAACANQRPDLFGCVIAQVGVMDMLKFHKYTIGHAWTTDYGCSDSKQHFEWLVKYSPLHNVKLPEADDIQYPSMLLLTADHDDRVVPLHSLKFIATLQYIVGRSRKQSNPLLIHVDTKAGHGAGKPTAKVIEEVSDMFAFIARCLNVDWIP

Row | SMILES | IC50 [1] | microsomal CLint [2] | hFAP Binding assay k(off) [3] | hFAP Binding assay k(on) [3] | Kd [3] | rHep CLint [4] | solubility [5] | Papp [6] | IC50 [7] | Papp A→B [6] | Papp B→A [6] | efflux ratio [6]
1 | N#C[C@@H]1CSCN1C(=O)CNC(=O)c1ccnc2ccc(N3CCC(=O)CC3)cc12 [Example 230, (R)—N-(2-(4-cyanothiazolidin-3-yl)-2-oxoethyl)-6-(4-oxopiperidin-1-yl)quinoline-4-carboxamide] | 0.078 nM | < 3 µL/min/mg |  |  |  | 2.8 μL/min/1E6 | > 1000 µM | 2 ×10⁻⁶ cm/s | 600 nM | 34 ×10⁻⁶ cm/s | 17 ×10⁻⁶ cm/s | 
2 | CC1(C)CN(c2ccc3nccc(C(=O)NCC(=O)N4CSC[C@H]4C#N)c3c2)C(=O)O1 [Example 13, (R)—N-(2-(4-Cyanothiazolidin-3-yl)-2-oxoethyl)-6-(5,5-dimethyl-2-oxooxazolidin-3-yl)quinoline-4-carboxamide] | 0.041 nM | 12 µL/min/mg | 0.000076 s⁻¹ | 9200000 M⁻¹ s⁻¹ | 0.014 nM | 5.4 μL/min/1E6 | 27 µM (≈ 11.9 µg/mL) |  | 380 nM |  |  | 
3 | CC1(C)CCc2cn(-c3ccc4nccc(C(=O)NCC(=O)N5CSC[C@H]5C#N)c4c3)nc21 [Example 117, (R)—N-(2-(4-Cyanothiazolidin-3-yl)-2-oxoethyl)-6-(6,6-dimethyl-5,6-dihydrocyclopenta[c]pyrazol-2(4H)-yl)quinoline-4-carboxamide] | 0.061 nM | 170 µL/min/mg |  |  | 0.06 nM | 29 μL/min/1E6 | 25 µM (≈ 11.5 µg/mL) |  | 170 nM |  |  | 
4 | N#C[C@@H]1CSCN1C(=O)CNC(=O)c1ccnc2ccc(-n3ccnc3-c3ccccc3)cc12 [Example 217, (R)—N-(2-(4-Cyanothiazolidin-3-yl)-2-oxoethyl)-6-(2-phenyl-1H-imidazol-1-yl)quinoline-4-carboxamide] | 0.67 nM | > 300 µL/min/mg | 0.0013 s⁻¹ | 1800000 M⁻¹ s⁻¹ | 0.71 nM | 37 μL/min/1E6 | 410 µM (≈ 192 µg/mL) |  | 310 nM |  |  | 
5 | Cc1ccn(-c2ccc3nccc(C(=O)NCC(=O)N4CSC[C@H]4C#N)c3c2)c1 [Example 121, (R)—N-(2-(4-Cyanothiazolidin-3-yl)-2-oxoethyl)-6-(3-methyl-1H-pyrrol-1-yl)quinoline-4-carboxamide] | 0.15 nM | 43 µL/min/mg | 0.000016 s⁻¹ | 1100000 M⁻¹ s⁻¹ | 0.012 nM | 13 μL/min/1E6 | 44 µM (≈ 17.8 µg/mL) |  | 88 nM |  |  | 
6 | N#C[C@@H]1CSCN1C(=O)CNC(=O)c1ccnc2ccc(-n3ccc4cc(F)ccc43)cc12 [Example 120, (R)—N-(2-(4-Cyanothiazolidin-3-yl)-2-oxoethyl)-6-(5-fluoro-1H-indol-1-yl)quinoline-4-carboxamide] | 0.15 nM | 100 µL/min/mg |  |  | 0.13 nM | 27 μL/min/1E6 | 0.92 µM (≈ 0.423 µg/mL) |  | 25 nM |  |  | 

Second part, the molecule after the results:

Row | IC50 [1] | microsomal CLint [2] | hFAP Binding assay k(off) [3] | hFAP Binding assay k(on) [3] | Kd [3] | rHep CLint [4] | solubility [5] | Papp [6] | IC50 [7] | Papp A→B [6] | Papp B→A [6] | efflux ratio [6] | SMILES
7 | 0.044 nM | 7.7 µL/min/mg | 0.000070 s⁻¹ | 1600000 M⁻¹ s⁻¹ | 0.043 nM | <1 μL/min/1E6 | 140 µM (≈ 59.3 µg/mL) | 5.2 ×10⁻⁶ cm/s | 550 nM |  |  |  | C[C@@H]1CCN(c2ccc3nccc(C(=O)NCC(=O)N4CSC[C@H]4C#N)c3c2)C1=O (single isomer, unassigned) [Example 202, N-(2-((R)-4-Cyanothiazolidin-3-yl)-2-oxoethyl)-6-((R*)-3-methyl-2-oxopyrrolidin-1-yl)quinoline-4-carboxamide]
8 | 0.091 nM | < 3 µL/min/mg | 0.000080 s⁻¹ | 1800000 M⁻¹ s⁻¹ | 0.047 nM | 2.6 μL/min/1E6 | 300 µM (≈ 137 µg/mL) |  | 1900 nM | 0.33 ×10⁻⁶ cm/s | 17 ×10⁻⁶ cm/s | 50 | COC[C@@H]1CN(c2ccc3nccc(C(=O)NCC(=O)N4CSC[C@H]4C#N)c3c2)CCO1 [Example 93, N-(2-((R)-4-Cyanothiazolidin-3-yl)-2-oxoethyl)-6-((S)-2-(methoxymethyl)-morpholino)quinoline-4-carboxamide]
9 | 0.092 nM | < 3 µL/min/mg | 0.000054 s⁻¹ | 910000 M⁻¹ s⁻¹ | 0.059 nM | 2.7 μL/min/1E6 | 850 µM (≈ 362 µg/mL) |  | 590 nM | 0.32 ×10⁻⁶ cm/s | 12 ×10⁻⁶ cm/s | 37 | CCC1(O)CN(c2ccc3nccc(C(=O)NCC(=O)N4CSC[C@H]4C#N)c3c2)C1 [Example 154, (R)—N-(2-(4-Cyanothiazolidin-3-yl)-2-oxoethyl)-6-(3-ethyl-3-hydroxy-azetidin-1-yl)quinoline-4-carboxamide]
10 | 0.091 nM | < 3 µL/min/mg |  |  |  | <1 μL/min/1E6 | 240 µM (≈ 102 µg/mL) |  | 1000 nM | 0.13 ×10⁻⁶ cm/s | 9.5 ×10⁻⁶ cm/s | 74 | C[C@@]1(O)CCN(c2ccc3nccc(C(=O)NCC(=O)N4CSC[C@H]4C#N)c3c2)C1 [Example 167, N-(2-((R)-4-Cyanothiazolidin-3-yl)-2-oxoethyl)-6-((R)-3-hydroxy-3-methylpyrrolidin-1-yl)quinoline-4-carboxamide]
11 | 0.07 nM | 40 µL/min/mg | 0.00013 s⁻¹ | 4500000 M⁻¹ s⁻¹ | 0.029 nM | 10 μL/min/1E6 | 5.3 µM (≈ 2.23 µg/mL) |  | 250 nM |  |  |  | N#C[C@@H]1CSCN1C(=O)CNC(=O)c1ccnc2ccc(N3CC(C4CC4)C3)cc12 [Example 145, (R)—N-(2-(4-Cyanothiazolidin-3-yl)-2-oxoethyl)-6-(3-cyclopropylazetidin-1-yl)quinoline-4-carboxamide]
12 | 0.16 nM | 63 µL/min/mg | 0.000056 s⁻¹ | 2900000 M⁻¹ s⁻¹ | 0.024 nM | 13 μL/min/1E6 | 960 µM (≈ 451 µg/mL) |  | 740 nM |  |  |  | COCC[C@@H]1COCCN1c1ccc2nccc(C(=O)NCC(=O)N3CSC[C@H]3C#N)c2c1 [Example 95, N-(2-((R)-4-Cyanothiazolidin-3-yl)-2-oxoethyl)-6-((R)-3-(2-methoxyethyl)-morpholino)quinoline-4-carboxamide]
13 | 0.052 nM | 6.7 µL/min/mg | 0.00028 s⁻¹ | 14000000 M⁻¹ s⁻¹ | 0.022 nM | 8.5 μL/min/1E6 | 84 µM (≈ 35.7 µg/mL) |  | 470 nM |  |  |  | CO[C@@H]1CCN(c2ccc3nccc(C(=O)NCC(=O)N4CSC[C@H]4C#N)c3c2)C1 [Example 161, N-(2-((R)-4-Cyanothiazolidin-3-yl)-2-oxoethyl)-6-((R)-3-methoxy-pyrrolidin-1-yl)quinoline-4-carboxamide]
14 | 0.17 nM | 71 µL/min/mg | 0.00022 s⁻¹ | 4000000 M⁻¹ s⁻¹ | 0.067 nM | 15 μL/min/1E6 | > 1000 µM |  | 880 nM |  |  |  | COC[C@H]1[C@H](C)OCCN1c1ccc2nccc(C(=O)NCC(=O)N3CSC[C@H]3C#N)c2c1 [Example 96, N-(2-((R)-4-Cyanothiazolidin-3-yl)-2-oxoethyl)-6-((2S,3S)-3-(methoxymethyl)-2-methylmorpholino)quinoline-4-carboxamide]
